Where “and” joins values, the source holds several entries; their conditions need not be identical. Equal values may be shown once. Where a name gives a salt, the structure may show the parent alone. Square brackets hold non-standard residues; d marks the D form. Peptide text beside a SMILES is read from it. * marks the point of attachment. X2 = CC(C)[C@@H](C(=O)*)N(C)CCCCCCN1C(=O)CC(SC[C@H](N)C(=O)O)C1=O; X3 = CC(C)[C@@H](C(=O)*)N(C)CCOCCOCCOCCC(=O)NCCCC[C@H](N)C(=O)O; X4 = C[C@@H](O)[C@@H](C(=O)*)N(C)CCCCCC(=O)NCCCC[C@H](N)C(=O)O; X1 = CC(C)[C@@H](C(=O)*)N(C)CCCCCC(=O)NCCCC[C@H](N)C(=O)O; Dolaproine = CO[C@@H]([C@@H]1CCCN1)[C@@H](C)C(=O)O; Dil = CC[C@H](C)[C@H](NC)[C@@H](CC(=O)O)OC; Oxazinan2yl(1,2) = C1CCN(*)OC1
Experiments:
Caco-2 cells = assay: Caco-2 flux assay for cell permeability; type: in vitro ADME; conditions: 2 hours, B to A
Protocol: The cell permeability of a substance can be investigated by means of in vitro testing in a flux assay using Caco-2 cells [M. D. Troutman and D. R. Thakker, Pharm. Res. 20 (8), 1210-1224 (2003)]. For this purpose, the cells were cultured for 15-16 days on 24-well filter plates. For the determination of permeation, the respective working example was applied in a HEPES buffer to the cells either apically (A) or basally (B) and incubated for 2 hours. After 0 hours and after 2 hours, samples were taken from the cis and trans compartments. The samples were separated by HPLC (Agilent 1200, Böblingen, Germany) using reverse phase columns. The HPLC system was coupled via a Turbo Ion Spray Interface to a Triple Quadropol mass spectrometer API 4000 (Applied Biosystems Applera, Darmstadt, Germany). The permeability was evaluated on the basis of a Papp value, which was calculated using the formula published by Schwab et al. [D. Schwab et al., J. Med. Chem. 46, 1716-1725 (2003)].

tubulin = assay: Fluorescence-based microtubule (tubulin) polymerization assay; type: biochemical
Protocol: Tubulin polymerization was investigated using the “Fluorescence-based Microtubule Polymerisation Assay Kit” from Cytoskeleton (Denver, Colo., USA; order number: BK011). With this assay, GTP is added to unpolymerized tubulin, allowing polymerization to take place spontaneously. The assay is based on the binding of the fluorophore 4′,6-di-amidino-2-phenylindole (DAPI) to tubulin. Free and bound DAPI can be differentiated on the basis of different emission spectra.
[…] In addition to the buffer control, paclitaxel, with a polymerization-increasing effect, and vinblastin, with a polymerization inhibiting effect, were run additionally as assay controls. Measurement was carried out using 96-well plates with a half base area. The kinetics of the tubulin polymerization were monitored in a Fluorimeter at 37° C. for 1 hour. The excitation wavelength was 355 nm, and emission was monitored at 460 nm. For the region of linear increase within the first 10 minutes, a calculation was made of the change in fluorescence per minute (ΔF/min), which represents the polymerization rate of the microtubuli. The potency of the test substances was quantified on the basis of their respective reduction of the polymerization rate.
The reduction in the tubulin polymerization rate occurs in dependence on the concentration of the test substance added.

[1] = concentration of toxophore 1 μM
[2] = concentration of toxophore 10 μM

Row | Structure (SMILES) | Papp (B-A) (Caco-2 cells) [×10⁻⁶ cm/s] | Tubulin polymerization in the presence of toxophore in [%]. Tubulin polymerization rate at 1 μM MMAF set at 100% (tubulin; [1]) [%] | Tubulin polymerization in the presence of toxophore in [%]. Tubulin polymerization rate at 1 μM MMAF set at 100% (tubulin; [2]) [%] | Tubulin polymerization in the presence of toxophore in [%]. Tubulin polymerization rate at 1 μM MMAF set at 100% (tubulin; concentration of toxophore 1 μM, trifluoroacetate)
1 | CC[C@H](C)[C@@H]([C@@H](CC(=O)N1CCC[C@H]1[C@H](OC)[C@@H](C)C(=O)N[C@@H](Cc1c[nH]c2ccccc12)C(N)=O)OC)N(C)C(=O)[C@@H](NC(=O)[C@H](C(C)C)N(C)CCCC(=O)NNC(=O)CCCCCN1C(=O)CC(SC[C@H](N)C(=O)O)C1=O)C(C)C (stereo partly drawn) [Example 62, N-(4-{2-[6-(3-{[(2R)-2-Amino-2-carboxyethyl]sulphanyl}-2,5-dioxopyrrolidin-1-yl)hexanoyl]hydrazino}-4-oxobutyl)-N-methyl-L-valyl-N-[(3R,4S,5S)-1-{(2S)-2-[(1R,2R)-3-{[(2S)-1-amino-3-(1H-indol-3-yl)-1-oxopropan-2-yl]amino}-1-methoxy-2-methyl-3-oxopropyl]pyrrolidin-1-yl}-3-methoxy-5-methyl-1-oxoheptan-4-yl]-N-methyl-L-valinamide] | 0.2 | 88 | 25 | –
2 | CC[C@H](C)[C@@H]([C@@H](CC(=O)N1CCC[C@H]1[C@H](OC)[C@@H](C)C(=O)N[C@@H](Cc1c[nH]c2ccccc12)C(=O)O)OC)N(C)C(=O)[C@@H](NC(=O)[C@H](C(C)C)N(C)CCCC(=O)NNC(=O)CCCCCN1C(=O)CC(SC[C@H](N)C(=O)O)C1=O)C(C)C (stereo partly drawn) [Example 63, N-(4-{2-[6-(3-{[(2R)-2-Amino-2-carboxyethyl]sulphanyl}-2,5-dioxopyrrolidin-1-yl)hexanoyl]hydrazino}-4-oxobutyl)-N-methyl-L-valyl-N-[(3R,4S,5S)-1-{(2S)-2-[(1R,2R)-3-{[(1S)-1-carboxy-2-(1H-indol-3-yl)ethyl]amino}-1-methoxy-2-methyl-3-oxopropyl]pyrrolidin-1-yl}-3-methoxy-5-methyl-1-oxoheptan-4-yl]-N-methyl-L-valinamide] | 0.16 | – | 27 | –
3 | CC[C@H](C)[C@@H]([C@@H](CC(=O)N1CCC[C@H]1[C@H](OC)[C@@H](C)C(=O)N[C@@H](Cc1c[nH]c2ccccc12)C(N)=O)OC)N(C)C(=O)[C@@H](NC(=O)[C@H](C(C)C)N(C)CCCCCCN1C(=O)CC(SC[C@H](N)C(=O)O)C1=O)C(C)C (stereo partly drawn) [Example 65, N-[6-(3-{[(2R)-2-Amino-2-carboxyethyl]sulphanyl}-2,5-dioxopyrrolidin-1-yl)hexyl]-N-methyl-L-valyl-N-[(3R,4S,5S)-1-{(2S)-2-[(1R,2R)-3-{[(2S)-1-amino-3-(1H-indol-3-yl)-1-oxopropan-2-yl]amino}-1-methoxy-2-methyl-3-oxopropyl]pyrrolidin-1-yl}-3-methoxy-5-methyl-1-oxoheptan-4-yl]-N-methyl-L-valinamide] (X2-V[Dil][Dolaproine]W-NH2) | 0.5 | – | 64 | –
4 | CC[C@H](C)[C@@H]([C@@H](CC(=O)N1CCC[C@H]1[C@H](OC)[C@@H](C)C(=O)N[C@@H](Cc1c[nH]c2ccccc12)C(=O)O)OC)N(C)C(=O)[C@@H](NC(=O)[C@H](C(C)C)N(C)CCCCCCN1C(=O)CC(SC[C@H](N)C(=O)O)C1=O)C(C)C (stereo partly drawn) [Example 66, N-[6-(3-{[(2R)-2-Amino-2-carboxyethyl]sulphanyl}-2,5-dioxopyrrolidin-1-yl)hexyl]-N-methyl-L-valyl-N-[(3R,4S,5S)-1-{(2S)-2-[(1R,2R)-3-{[(1S)-1-carboxy-2-(1H-indol-3-yl)ethyl]amino}-1-methoxy-2-methyl-3-oxopropyl]pyrrolidin-1-yl}-3-methoxy-5-methyl-1-oxoheptan-4-yl]-N-methyl-L-valinamide] (X2-V[Dil][Dolaproine]W-OH) | 0.1 | – | 25 | –
5 | CC[C@H](C)[C@@H]([C@@H](CC(=O)N1CCC[C@H]1[C@H](OC)[C@@H](C)C(=O)N[C@@H](Cc1c[nH]c2ccccc12)C(=O)N1CCCCO1)OC)N(C)C(=O)[C@@H](NC(=O)[C@H](C(C)C)N(C)CCCCCCN1C(=O)CC(SC[C@H](N)C(=O)O)C1=O)C(C)C (stereo partly drawn) [Example 67, N-[6-(3-{[(2R)-2-Amino-2-carboxyethyl]sulphanyl}-2,5-dioxopyrrolidin-1-yl)hexyl]-N-methyl-L-valyl-N-[(3R,4S,5S)-1-{(2S)-2-[(1R,2R)-3-{[(2S)-3-(1H-indol-3-yl)-1-(1,2-oxazinan-2-yl)-1-oxopropan-2-yl]amino}-1-methoxy-2-methyl-3-oxopropyl]pyrrolidin-1-yl}-3-methoxy-5-methyl-1-oxoheptan-4-yl]-N-methyl-L-valinamide] (X2-V[Dil][Dolaproine]W-{Oxazinan2yl(1,2)}) | – | – | 35 | –
6 | CC[C@H](C)[C@@H]([C@@H](CC(=O)N1CCC[C@H]1[C@H](OC)[C@@H](C)C(=O)N[C@@H](Cc1ccccc1)C(=O)NCc1ccccc1)OC)N(C)C(=O)[C@@H](NC(=O)[C@H](C(C)C)N(C)CCCC(=O)NNC(=O)CCCCCN1C(=O)CC(SC[C@H](N)C(=O)O)C1=O)C(C)C (stereo partly drawn) [Example 69, N-(4-{2-[6-(3-{[(2R)-2-Amino-2-carboxyethyl]sulphanyl}-2,5-dioxopyrrolidin-1-yl)hexanoyl]hydrazino}-4-oxobutyl)-N-methyl-L-valyl-N-[(3R,4S,5S)-1-{(2S)-2-[(1R,2R)-3-{[(2S)-1-(benzylamino)-1-oxo-3-phenylpropan-2-yl]amino}-1-methoxy-2-methyl-3-oxopropyl]pyrrolidin-1-yl}-3-methoxy-5-methyl-1-oxoheptan-4-yl]-N-methyl-L-valinamide] | – | 110 | – | –
7 | CC[C@H](C)[C@@H]([C@@H](CC(=O)N1CCC[C@H]1[C@H](OC)[C@@H](C)C(=O)N[C@@H](Cc1c[nH]c2ccccc12)C(=O)N1CCCCO1)OC)N(C)C(=O)[C@@H](NC(=O)[C@H](C(C)C)N(C)CCOCCOCCOCCC(=O)NCCCC[C@H](N)C(=O)O)C(C)C [Example 107, N-[(18S)-18-Amino-18-carboxy-12-oxo-3,6,9-trioxa-13-azaoctadec-1-yl]-N-methyl-L-valyl-N-[(3R,4S,5S)-1-{(2S)-2-[(1R,2R)-3-{[(2S)-3-(1H-indol-3-yl)-1-(1,2-oxazinan-2-yl)-1-oxopropan-2-yl]amino}-1-methoxy-2-methyl-3-oxopropyl]pyrrolidin-1-yl}-3-methoxy-5-methyl-1-oxoheptan-4-yl]-N-methyl-L-valinamide trifluoroacetate] (X3-V[Dil][Dolaproine]W-{Oxazinan2yl(1,2)}) | – | – | – | 60% and 78%
8 | CC[C@H](C)[C@@H]([C@@H](CC(=O)N1CCC[C@H]1[C@H](OC)[C@@H](C)C(=O)N[C@@H](Cc1c[nH]c2ccccc12)C(=O)N1CCCCO1)OC)N(C)C(=O)[C@@H](NC(=O)[C@H]([C@@H](C)O)N(C)CCCCCC(=O)NCCCC[C@H](N)C(=O)O)C(C)C [Example 116, N-(6-{[(5S)-5-Amino-5-carboxypentyl]amino}-6-oxohexyl)-N-methyl-L-threonyl-N-[(3R,4S,5S)-1-{(2S)-2-[(1R,2R)-3-{[(2S)-3-(1H-indol-3-yl)-1-(1,2-oxazinan-2-yl)-1-oxopropan-2-yl]amino}-1-methoxy-2-methyl-3-oxopropyl]pyrrolidin-1-yl}-3-methoxy-5-methyl-1-oxoheptan-4-yl]-N-methyl-L-valinamide trifluoroacetate] (X4-V[Dil][Dolaproine]W-{Oxazinan2yl(1,2)}) | 0.18 | – | – | –
9 | CC[C@H](C)[C@@H]([C@@H](CC(=O)N1CCC[C@H]1[C@H](OC)[C@@H](C)C(=O)N[C@@H](Cc1ccc(O)cc1)C(=O)O)OC)N(C)C(=O)[C@@H](NC(=O)[C@H](C(C)C)N(C)CCCCCC(=O)NCCCC[C@H](N)C(=O)O)C(C)C [Example 118, N-(6-{[(5S)-5-Amino-5-carboxypentyl]amino}-6-oxohexyl)-N-methyl-L-valyl-N-[(3R,4S,5S)-1-{(2S)-2-[(1R,2R)-3-{[(1S)-1-carboxy-2-(4-hydroxyphenyl)ethyl]amino}-1-methoxy-2-methyl-3-oxopropyl]pyrrolidin-1-yl}-3-methoxy-5-methyl-1-oxoheptan-4-yl]-N-methyl-L-valinamide trifluoroacetate] (X1-V[Dil][Dolaproine]Y-OH) | – | 90 | 17 | –
